Biological target: Bovine Serum Albumim (BSA) (Bos taurus, UniProt P02769)
Assay: Pyranine fluorescence in BSA solution: replacement of pyranine from BSA binding sites by added surfactant
Conditions: for ratio of the fluorescence intensities from the deprotonated and protonated state (509 nm / 426 nm): pyranine 1.0×10^−8 M in 50 mM Hepes buffer pH 6.7, BSA 2.5 mg/ml, surfactant added at weight fraction 4×10^−5; for ratio of the fluorescence intensities 509 nm / 426 nm: no surfactant
Description: Fluorescence spectra of pyranine in solutions and on skin were obtained using a Perkin Elmer LS50B fluorometer. In the case of spectra taken on skin, the fiber optic probe accessory was used.
All spectra were taken at pyranine concentrations of 1.0×10^−8 M in 50 mM Hepes buffer (aqueous buffer solution with pH 6.7). Bovine Serum Albumim (BSA) concentrations were 2.5 mg/ml. Surfactant was added at weight fractions of 4×10^−5.
In order to test the applicability of pyranine fluorescence to monitor the binding of surfactants to proteins, applicants studied the effect of added surfactant on the fluorescence spectrum of aqueous solutions of pyranine and BSA. […] This effect can be explained by the replacement of pyranine molecules bound to BSA by SDS molecules leading to an increased concentration of pyranine in free solution and therefore a relative increase in intensity of the fluorescence from the deprotonated state. The ratio of the fluorescence intensities from the deprotonated and protonated site is a measure of the ability of a surfactant to replace pyranine from BSA binding sites.

Bovine Serum Albumim (BSA), sequence (P02769 25-607): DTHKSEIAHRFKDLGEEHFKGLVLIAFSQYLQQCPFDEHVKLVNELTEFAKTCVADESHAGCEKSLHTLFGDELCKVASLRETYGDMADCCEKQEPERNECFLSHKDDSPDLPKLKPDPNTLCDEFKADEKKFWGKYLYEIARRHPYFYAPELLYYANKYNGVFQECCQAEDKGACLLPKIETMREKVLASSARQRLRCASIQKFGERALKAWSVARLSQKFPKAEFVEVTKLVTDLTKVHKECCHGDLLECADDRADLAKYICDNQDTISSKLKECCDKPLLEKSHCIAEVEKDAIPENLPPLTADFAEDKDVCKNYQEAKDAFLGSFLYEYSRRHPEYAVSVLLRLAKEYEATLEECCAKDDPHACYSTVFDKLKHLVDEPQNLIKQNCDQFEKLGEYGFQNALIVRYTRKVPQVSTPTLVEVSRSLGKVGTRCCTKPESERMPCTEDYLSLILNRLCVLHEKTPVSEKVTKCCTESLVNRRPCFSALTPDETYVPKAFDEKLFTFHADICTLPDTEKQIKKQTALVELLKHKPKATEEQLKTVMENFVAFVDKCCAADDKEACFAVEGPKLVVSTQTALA

| ratio of the fluorescence intensities from the deprotonated and protonated state (509 nm / 426 nm) | Compound | also measured |
| --- | --- | --- |
| 2.13 | CCCCCCCCCCCC(=O)[O-].[Na+] [Sodium Laurate] |  |
| 1.34 | alkylpolyglycoside [APG] |  |
| 2.12 | Sodiumlauryl Ether Sulfate |  |
| 1.56 | Cocamilopropyl Betaine |  |
|  | O=S(=O)(O)c1cc(O)c2ccc3c(S(=O)(=O)O)cc(S(=O)(=O)O)c4ccc1c2c34 [Pyranine, 8-hydroxyl-1 ,3,6-pyrene-trisulfonic acid] | ratio of the fluorescence intensities 509 nm / 426 nm (pyranine 1.0×10^−8 M in 50 mM Hepes buffer pH 6.7, no BSA): 8.03; ratio of the fluorescence intensities 509 nm / 426 nm (pyranine 1.0×10^−8 M in 50 mM Hepes buffer pH 6.7 with BSA 2.5 mg/ml): 1.17 |

| Compound | ratio of the fluorescence intensities from the deprotonated and protonated state (509 nm / 426 nm) | also measured |
| --- | --- | --- |
| CCCCCCCCCCCCOS(=O)(=O)[O-].[Na+] [SDS, sodium dodecyl sulphate] | 2.23 | effect of added surfactant on the fluorescence spectrum of pyranine and BSA (FIG. 2) (50 mM Hepes buffer, 2.5 mg/ml BSA, 4×10^−5 weight fraction SDS): significant increase of the relative intensity of the fluorescence from the deprotonated state |
